Measurements from patent publication US8362017B2, “C-kit modulators and methods of use” (Exelixis, Inc., priority 2003, dated 2013).

Target: c-Kit kinase (Homo sapiens, UniProt P10721)
Experiment: c-Kit biochemical activity assay (AlphaScreen)
Conditions: biotinylated poly(Glu, Tyr) substrate, 1 hr at ambient temperature
Method: Kinase activity and compound inhibition are investigated using one or more of the three assay formats described below. The ATP concentrations for each assay are selected to be close to the Michaelis-Menten constant (KM) for each individual kinase. Dose-response experiments are performed at 10 different inhibitor concentrations in a 384-well plate format. The data are fitted to four-parameter equation (2) below; where Y is the observed signal, X is the inhibitor concentration, Min is the background signal in the absence of enzyme (0% enzyme activity), Max is the signal in the absence of inhibitor (100% enzyme activity), IC50 is the inhibitor concentration at 50% enzyme inhibition and H represents the empirical Hill's slope to measure the cooperativity. Typically H is close to unity. Y=Min+(Max−Min)/(1+(X/IC50)^H) Equation (2) c-Kit Assay
c-Kit biochemical activity was assessed using AlphaScreen™ (Perldn Elmer) technology, described above. Test compounds, ATP, biotinylated poly(Glu, Tyr) and c-Kit kinase were combined in a volume of 20 μL in a 384-well white, medium binding microtiter plate (Greiner). Reaction mixtures were incubated for 1 hr at ambient temperature. Reactions were quenched by addition of 10 μL of 15-30 mg/mL AlphaScreen bead suspension containing 75 mM Hepes, pH 7.4, 300 mM NaCl, 120 mM EDTA, 0.3% BSA and 0.03% Tween-20. After 16 hr incubation at ambient temperature plates were read using an AlphaQuest reader (Perkin Elmer).

Sequence of c-Kit kinase (P10721 26-976): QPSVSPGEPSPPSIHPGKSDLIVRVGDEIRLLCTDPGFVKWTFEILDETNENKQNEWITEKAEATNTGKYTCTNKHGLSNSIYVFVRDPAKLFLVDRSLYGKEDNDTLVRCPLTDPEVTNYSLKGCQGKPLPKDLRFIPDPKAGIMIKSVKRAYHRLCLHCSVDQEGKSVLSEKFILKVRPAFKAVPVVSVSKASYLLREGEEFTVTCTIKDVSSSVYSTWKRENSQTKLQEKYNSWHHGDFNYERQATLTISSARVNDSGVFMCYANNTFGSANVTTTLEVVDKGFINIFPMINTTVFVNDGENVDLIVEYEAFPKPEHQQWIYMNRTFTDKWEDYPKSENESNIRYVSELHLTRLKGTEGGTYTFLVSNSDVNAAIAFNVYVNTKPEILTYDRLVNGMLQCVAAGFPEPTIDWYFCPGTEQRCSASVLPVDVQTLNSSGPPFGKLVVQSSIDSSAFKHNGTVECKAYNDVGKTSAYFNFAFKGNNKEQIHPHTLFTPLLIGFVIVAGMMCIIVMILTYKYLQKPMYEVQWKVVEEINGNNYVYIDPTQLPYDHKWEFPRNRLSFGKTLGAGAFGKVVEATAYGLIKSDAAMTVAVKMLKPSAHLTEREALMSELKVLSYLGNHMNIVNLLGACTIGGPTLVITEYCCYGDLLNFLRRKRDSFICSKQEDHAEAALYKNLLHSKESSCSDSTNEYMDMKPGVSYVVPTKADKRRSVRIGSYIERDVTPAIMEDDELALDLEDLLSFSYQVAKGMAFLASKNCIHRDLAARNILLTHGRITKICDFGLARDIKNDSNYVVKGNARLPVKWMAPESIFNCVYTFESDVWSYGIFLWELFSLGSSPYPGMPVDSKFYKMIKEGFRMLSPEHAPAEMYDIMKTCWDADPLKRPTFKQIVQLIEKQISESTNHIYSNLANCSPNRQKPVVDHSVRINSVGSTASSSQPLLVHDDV

Compound: O=C(NCc1ccc(-c2cccnc2F)cc1)Nc1ccc(Cl)c(C(F)(F)F)c1 [Example 254, N-[4-chloro-3-(trifluoromethyl)phenyl]-N′-{[4-(2-fluoropyridin-3-yl)phenyl]methyl}urea]
- IC50: 500 to 5000 nM

Compound: O=C(Nc1cccc(C(F)(F)F)c1)OCc1cccc(-n2cnnn2)c1 [Example 255, [3-(1H-tetrazol-1-yl)phenyl]methyl [3-(trifluoromethyl)phenyl]carbamate]
- IC50: 50 to 500 nM

Compound: O=C(Nc1cccc(C(F)(F)F)n1)OCc1cccc(-n2cnnn2)c1 [Example 256, [3-(1H-tetrazol-1-yl)phenyl]methyl [6-(trifluoromethyl)pyridin-2-yl]carbamate]
- IC50: 500 to 5000 nM

Compound: O=C(Nc1cc(C(F)(F)F)ccn1)OCc1cccc(-n2cnnn2)c1 [Example 257, [3-(1H-tetrazol-1-yl)phenyl]methyl [4-(trifluoromethyl)pyridin-2-yl]carbamate]
- IC50: 50 to 500 nM

Compound: CSc1ccc(-c2cccc(CNC(=O)Nc3ccc(Cl)c(C(F)(F)F)c3)c2)nc1 [Example 258, N-[4-chloro-3-(trifluoromethyl)phenyl]-N′-({3-[5-(methylthio)pyridin-2-yl]phenyl}methyl)urea]
- IC50: 500 to 5000 nM

Compound: Cc1ccc(-c2cccc(COC(=O)Nc3ccc(Cl)c(C(F)(F)F)c3)c2)c(C)n1 [Example 259, [3-(2,6-dimethylpyridin-3-yl)phenyl]methyl [4-chloro-3-(trifluoromethyl)phenyl]carbamate]
- IC50: 500 to 5000 nM

Compound: COc1cncc(-c2cccc(COC(=O)Nc3ccc(Cl)c(C(F)(F)F)c3)c2)c1 [Example 260, {3-[5-(methyloxy)pyridin-3-yl]phenyl}methyl [4-chloro-3-(trifluoromethyl)phenyl]carbamate]
- IC50: 50 to 500 nM

Compound: O=C(Nc1ccc(Cl)c(C(F)(F)F)c1)OCc1cccc(-c2cccnc2)n1 [Example 261, 2,3′-bipyridin-6-ylmethyl [4-chloro-3-(trifluoromethyl)phenyl]carbamate]
- IC50: 500 to 5000 nM

Compound: O=C(Nc1ccc(Cl)c(C(F)(F)F)c1)OCc1cccc(-c2cncnc2)n1 [Example 262, (6-pyrimidin-5-ylpyridin-2-yl)methyl [4-chloro-3-(trifluoromethyl)phenyl]carbamate]
- IC50: 500 to 5000 nM

Compound: O=C(NCc1cccc(-c2cncc3ccccc23)c1)Nc1ccc(Cl)c(C(F)(F)F)c1 [Example 263, N-[4-chloro-3-(trifluoromethyl)phenyl]-N′-[(3-isoquinolin-4-ylphenyl)methyl]urea]
- IC50: 500 to 5000 nM

Compound: O=C(NCc1ccc(-c2cncc3ccccc23)cc1)Nc1ccc(Cl)c(C(F)(F)F)c1 [Example 264, N-[4-chloro-3-(trifluoromethyl)phenyl]-N′-[(4-isoquinolin-4-ylphenyl)methyl]urea]
- IC50: 500 to 5000 nM

Compound: O=C(Nc1cc(C(F)(F)F)ccn1)OCc1cccc(-n2cnnn2)n1 [Example 265, [6-(1H-tetrazol-1-yl)pyridin-2-yl]methyl [4-(trifluoromethyl)pyridin-2-yl]carbamate]
- IC50: 50 to 500 nM

Compound: O=C(Nc1ccc(Cl)c(C(F)(F)F)c1)OCc1cccc(-c2cn[nH]c2)c1 [Example 266, [3-(1H-pyrazol-4-yl)phenyl]methyl [4-chloro-3-(trifluoromethyl)phenyl]carbamate]
- IC50: < 50 nM

Compound: O=C(Nc1ccc(Cl)c(C(F)(F)F)c1)OCc1ccc(-c2cn[nH]c2)cc1 [Example 267, [4-(1H-pyrazol-4-yl)phenyl]methyl [4-chloro-3-(trifluoromethyl)phenyl]carbamate]
- IC50: 500 to 5000 nM
